The values below come from paper PMC8471537, “Novel Coumarin-Thiadiazole Hybrids and Their Cu(II) and Zn(II) Complexes as Potential Antimicrobial Agents and Acetylcholinesterase Inhibitors” (International Journal of Molecular Sciences, 2021).

The target of the assay is Acetylcholinesterase (AChE; E.C. 3.1.1.7) from Electrophorus electricus (Electrophorus electricus, UniProt O42275). As to the kind of experiment: Ellman assay, absorbance at […] nm. Type of assay: biochemical.
Acetylcholinesterase (AChE; E.C. 3.1.1.7) from Electrophorus electricus, sequence (O42275 24-633): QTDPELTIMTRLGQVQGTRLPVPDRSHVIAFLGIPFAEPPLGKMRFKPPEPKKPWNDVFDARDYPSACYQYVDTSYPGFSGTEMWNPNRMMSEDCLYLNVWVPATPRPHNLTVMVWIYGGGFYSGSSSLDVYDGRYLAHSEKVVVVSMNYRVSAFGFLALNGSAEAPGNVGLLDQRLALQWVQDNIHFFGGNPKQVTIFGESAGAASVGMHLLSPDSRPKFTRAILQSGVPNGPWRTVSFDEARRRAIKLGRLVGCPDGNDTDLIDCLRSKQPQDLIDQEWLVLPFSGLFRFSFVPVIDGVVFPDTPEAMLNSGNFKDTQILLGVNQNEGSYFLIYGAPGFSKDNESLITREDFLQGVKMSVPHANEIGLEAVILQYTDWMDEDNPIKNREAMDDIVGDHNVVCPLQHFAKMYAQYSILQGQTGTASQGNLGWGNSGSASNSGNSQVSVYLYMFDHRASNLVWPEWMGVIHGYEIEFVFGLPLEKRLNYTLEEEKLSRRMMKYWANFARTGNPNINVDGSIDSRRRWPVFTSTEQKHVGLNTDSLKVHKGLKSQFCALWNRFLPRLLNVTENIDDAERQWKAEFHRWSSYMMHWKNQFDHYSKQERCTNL
Compound `Cc1cc(=O)oc2c(-c3nnc(N)s3)c(O)ccc12` [compound 2, 2] returned an IC50 of 0.218 ± 0.0084 µM.
As for `CNc1nnc(-c2c(O)ccc3c(C)cc(=O)oc23)s1` [compound 3, 3], the figure is 0.211 ± 0.0123 µM; as for `CC(=O)Nc1nnc(-c2c(O)ccc3c(C)cc(=O)oc23)s1` [compound 4, 4], 0.181 ± 0.0123 µM.
In turn, `Cc1cc(=O)oc2c(-c3nnc(Nc4ccccc4)s3)c(O)ccc12` [compound 5, 5] yielded an IC50 of 0.299 ± 0.0194 µM.
